Assay results as given in US6822140B2, “Compositions and methods for fumonisin detoxification” (Pioneer Hi-Bred International, Inc., priority 1999, dated 2004).

How the values were obtained:
BMS cells = assay: Effect of FB1 and AP1 on growth of maize tissue cultured cells (Black Mexican Sweet, BMS); format: cell-based; settings: for concentration at which growth of BMS cells was inhibited: 1 week, liquid culture, compared to water control wells
Experimental: FB1 or AP1 at various concentrations was added to suspensions of BMS cells growing in liquid culture medium in 96-well polystyrene plates. After 1 week the cell density in wells was observed under low power magnification and growth of toxin-treated wells was compared to control wells that received water. […] This represents an approximate 100-fold difference in toxicity to maize tissue-cultured cells. […] AP1 was not tested in that study, however.

Lemna tissues = settings: Vesonder et al. (1992); cited from earlier work
tomato = settings: Lamprecht et al. (1994); cited from earlier work
Maize coleoptiles = assay: Effect of FB1 and AP1 on maize coleoptiles (injury evaluation); parameters: key to Injury or lack thereof of maize coleoptiles: + = brown necrotic discoloration of coleoptile; − = no symptoms (same as water control); settings: for Injury or lack thereof of maize coleoptiles: 2 days dark at 28° C. then 3 days light
Experimental: Maize coleoptiles from 4 day dark-grown germinated maize seeds were excised above the growing point and placed in 96-well microliter plates in the presence of 60 microliters of sterile distilled water containing FB1 or AP1 at approximately equimolar concentrations of 1.5, 0.5, 0.15, 0.05, 0.015, 0.005, 0.0015, or 0.0005 millimolar, along with water controls. After 2 days in the dark at 28° C. the coleoptiles were placed in the light and incubated another 3 days.

maize callus = settings: solid medium; Van Asch et al. (1992); cited from earlier work

SMILES	concentration at which growth of BMS cells was inhibited (BMS cells) [nM]	difference in toxicity to maize tissue-cultured cells (FB1 vs AP1) (BMS cells; AP1 less toxic than FB1) [fold]	AP1 less toxic (than FB1) in Lemna tissues (Lemna tissues)	reduction in toxicity to tomato by AP1 versus FB1 (tomato) [fold]	Injury or lack thereof of maize coleoptiles (Maize coleoptiles; 1.5 mM)	Injury or lack thereof of maize coleoptiles (Maize coleoptiles; .0005 mM)	Injury or lack thereof of maize coleoptiles (Maize coleoptiles; .0015 mM)	Injury or lack thereof of maize coleoptiles (Maize coleoptiles; .005 mM)	Injury or lack thereof of maize coleoptiles (Maize coleoptiles; .015 mM)	Injury or lack thereof of maize coleoptiles (Maize coleoptiles; .05 mM)	Injury or lack thereof of maize coleoptiles (Maize coleoptiles; .15 mM)	Injury or lack thereof of maize coleoptiles (Maize coleoptiles; .5 mM)	difference in toxicity between FB1 and AP1 to maize coleoptiles (Maize coleoptiles; AP1 less toxic than FB1) [fold]	concentration giving significant inhibition of maize callus (maize callus) [nM]
CCCC[C@@H](C)[C@@H](O)[C@@H](O)C[C@@H](C)C[C@H](O)CCCC[C@@H](O)C[C@H](O)[C@H](C)N [AP1]	40000	~100	approximately 40 fold	~100	+	−	−	−	−	−	−	−	≥ 30	
CCCC[C@@H](C)[C@@H](OC(=O)C[C@@H](CC(=O)O)C(=O)O)[C@H](C[C@@H](C)C[C@H](O)CCCC[C@@H](O)C[C@H](O)[C@H](C)N)OC(=O)C[C@@H](CC(=O)O)C(=O)O [FB1, fumonisin B1]	400				+	−	−	−		+	+	+		1400
